Data from patent EP3815699A1, “NEW MEANS AND METHODS FOR THERAPY AND DIAGNOSIS OF […]” (Technische Universität München, priority 2019, dated 2021).
Read-outs that look alike come from different tables or passages of the source.

Columns and labels:
[1] = tested on: HAdV-C5 delta E3 virus, encoding a CMV promoter driven eGFP expression cassette; assay: GFP fluorescence of replication competent GFP-expressing virus in H1299 cells (Fig. 2B); assay type: cell-based; conditions: for IC50: read-out: IC50 (HAdV infection, GFP)
Procedure: (§1) • Figure 1: ATO efficiently reduces HAdV infectivity (cf. Example 1). H1299 cells were infected with HAdV-C5 wt at a multiplicity of 5 FFU/cell, treated with the depicted concentrations of ATO at 2 h.p.i., fixed 48 h.p.i. with 4 % PFA and double labeled with mAb B6-8 (α-E2A) and pAb L133 (α-Capsid). Primary antibodies were detected using Alexa488 (E2A, green) and Alexa568 (Capsid, red) conjugated secondary antibodies. (A) The number of E2A and Capsid expressing cells, respectively, was counted in n=40 overview pictures (not shown), normalized to untreated, infected cells, and represented in bar charts. Bar charts represent average values and standard deviations based on four independent experiments. (B) H1299 cells were infected with HAdV-C5 at a multiplicity of 20 FFU/cell, and treated with the depicted concentrations of ATO at 2 h.p.i.. Viral particles were harvested 48 h.p.i. and virus yield was determined by quantitative E2A immunofluorescence staining in 293 cells. Bar charts represent average values and standard deviations based on three independent experiments. Statistically significant differences were determined using a two-sided Welch's t-test. *: P ≤ 0.05, **: P ≤ 0.01, ***: P ≤ 0.001, ****: P ≤ 0.0001. • Figure 2: ATO induces a dose dependent reduction of HAdV infectivity with minor effects on cell viability (cf. Example 2). (A) H1299 cells were infected with HAdV-C5 wt at a multiplicity of 20 FFU/cell and treated with the depicted concentrations of ATO at 2 h.p.i.. 24 or 48 h.p.i., cell viability was assessed using the Promega CellTiter-Blue Cell Viability Assay system, prior to fixation with 4 % PFA and cells were double labeled with mAb B6-8 (α-E2A) and pAb L133 (α-Capsid). Primary antibodies were detected using Alexa488 (E2A, green) and Alexa647 (Capsid, red) conjugated secondary antibodies. Fluorescence intensity was measured using a Tecan Infinite 200M plate reader using an excitation and emission wavelength of 488 and 520nm for Alexa488 and 640 and 670nm for Alexa647 respectively. Fluorescence intensity was normalized to untreated, infected cells at 48h p.i.. xy charts represent average values and standard deviations based on three independent experiments measured in triplicates. (B) H1299 cells were infected with an HAdV-C5 delta E3 virus, encoding a CMV promoter driven eGFP expression cassette, at a multiplicity of 20FFU/cell and treated with the depicted concentrations of ATO at 2h p.i.; 24 or 48 h p.i. cell viability was assessed using the Promega CellTiter-Blue Cell Viability Assay system, and GFP fluorescence intensity was measured using a Tecan Infinite 200M plate reader using an excitation and emission wavelength of 488 and 520nm. Fluorescence intensity was normalized to untreated, infected cells at 48h p.i.; xy charts represent average values and standard deviations based on three independent experiments measured in triplicates. (C) H1299 cells were infected with an eGFP expressing HAdV-C5 based first generation adenoviral vector at a multiplicity of 20 FFU/cell and treated with the depicted concentrations of ATO at 2h p.i.; 24 or 48h p.i., cell viability was assessed using the Promega CellTiter-Blue Cell Viability Assay system, and GFP fluorescence intensity was measured using a Tecan Infinite 200M plate reader using an excitation and emission wavelength of 488 and 520nm. […]

[2] = tested on: eGFP expressing HAdV-C5 based first generation adenoviral vector; assay: GFP fluorescence of non-replicating adenoviral vector in H1299 cells (Fig. 2C); assay type: cell-based; conditions: for GFP expression compared to the untreated control: 8µM ATO; for IC50: read-out: IC50 (GFP expression)
Procedure: as §1, with “(A) H1299 cells were infected with HAdV-C5 wt at a multiplicity of 20 FFU/cell and treated with the depicted concentrations of ATO at 2 h.p.i..” left out, “triplicates.” for “triplicates. (C) H1299 cells were infected with an eGFP expressing HAdV-C5 based first generation adenoviral vector at a multiplicity of 20 FFU/cell and treated with the depicted concentrations of ATO at 2h p.i.; 24 or 48h p.i., cell viability was assessed using the Promega CellTiter-Blue Cell Viability Assay system, and GFP fluorescence intensity was measured using a Tecan Infinite 200M plate reader using an excitation and emission wavelength of 488 and 520nm.”

H1299 cells = assay type: cell-based, Human; conditions: lower panel
Procedure: • Figure 1: ATO efficiently reduces HAdV infectivity (cf. Example 1). H1299 cells were infected with HAdV-C5 wt at a multiplicity of 5 FFU/cell, treated with the depicted concentrations of ATO at 2 h.p.i., fixed 48 h.p.i. with 4 % PFA and double labeled with mAb B6-8 (α-E2A) and pAb L133 (α-Capsid). Primary antibodies were detected using Alexa488 (E2A, green) and Alexa568 (Capsid, red) conjugated secondary antibodies. (A) The number of E2A and Capsid expressing cells, respectively, was counted in n=40 overview pictures (not shown), normalized to untreated, infected cells, and represented in bar charts. Bar charts represent average values and standard deviations based on four independent experiments. (B) H1299 cells were infected with HAdV-C5 at a multiplicity of 20 FFU/cell, and treated with the depicted concentrations of ATO at 2 h.p.i.. Viral particles were harvested 48 h.p.i. and virus yield was determined by quantitative E2A immunofluorescence staining in 293 cells. Bar charts represent average values and standard deviations based on three independent experiments. Statistically significant differences were determined using a two-sided Welch's t-test. *: P ≤ 0.05, **: P ≤ 0.01, ***: P ≤ 0.001, ****: P ≤ 0.0001. • Figure 2: ATO induces a dose dependent reduction of HAdV infectivity with minor effects on cell viability (cf. Example 2). […] 24 or 48 h.p.i., cell viability was assessed using the Promega CellTiter-Blue Cell Viability Assay system, prior to fixation with 4 % PFA and cells were double labeled with mAb B6-8 (α-E2A) and pAb L133 (α-Capsid). Primary antibodies were detected using Alexa488 (E2A, green) and Alexa647 (Capsid, red) conjugated secondary antibodies. Fluorescence intensity was measured using a Tecan Infinite 200M plate reader using an excitation and emission wavelength of 488 and 520nm for Alexa488 and 640 and 670nm for Alexa647 respectively. Fluorescence intensity was normalized to untreated, infected cells at 48h p.i.. xy charts represent average values and standard deviations based on three independent experiments measured in triplicates. […]

[3] = tested on: HAdV-C5 delta E3 virus, encoding a CMV promoter driven eGFP expression cassette; assay: IncuCyte live-cell imaging, real-time kinetics of GFP expression (Fig. 2D); assay type: cell-based; conditions: 60h p.i., A549 cells
HAdV-C5 wt [4] = assay: Quantitative RT-PCR of viral E1A and Hexon mRNA (Fig. 3B); assay type: cell-based; conditions: 2µM ATO, 48h
HAdV-C5 wt [5] = assay: Western blot of viral protein expression (Fig. 3C); assay type: cell-based; conditions: 1 and 2µM ATO
HAdV-C5 wt [6] = assay: Native agarose gel electrophoresis capsid formation assay (Fig. 3D); assay type: cell-based
PML-NBs = assay: Immunofluorescence count of PML-NBs per cell in uninfected H1299 cells (Fig. 4A); assay type: cell-based, Human; conditions: non-infected cells
Chain of PML-NBs (P29590 1-418 limits assumed): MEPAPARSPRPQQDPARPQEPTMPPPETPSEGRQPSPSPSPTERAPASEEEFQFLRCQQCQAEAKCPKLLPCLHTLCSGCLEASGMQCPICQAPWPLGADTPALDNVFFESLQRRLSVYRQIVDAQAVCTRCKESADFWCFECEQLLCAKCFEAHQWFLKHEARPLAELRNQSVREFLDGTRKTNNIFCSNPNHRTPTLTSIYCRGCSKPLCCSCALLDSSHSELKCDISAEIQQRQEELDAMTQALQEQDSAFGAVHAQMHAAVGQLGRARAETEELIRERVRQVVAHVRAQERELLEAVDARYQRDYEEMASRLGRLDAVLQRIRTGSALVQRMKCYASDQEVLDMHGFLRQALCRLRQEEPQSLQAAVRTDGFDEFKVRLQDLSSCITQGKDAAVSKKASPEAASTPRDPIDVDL

HAdV-C5 wt [7] = assay: Immunofluorescence count of HAdV replication centers marked by E2A (Fig. 4B); assay type: cell-based; conditions: HAdV infected cells

Substance: arsenic trioxide [ATO]
- inhibition of adenoviral infection ([1]; 4µM ATO, 48h p.i.): more than 75%
- IC50 ([1]; 24h p.i.): 1.61 µM
- IC50 ([1]; 48 h p.i.): 1.18 µM
- GFP expression compared to the untreated control ([2]; 24h p.i.): Less than 50%
- GFP expression compared to the untreated control ([2]; 48h p.i.): Less than 50%
- IC50 ([2]; 24h p.i.): 6.49 µM
- IC50 ([2]; 48h p.i.): 10.2 µM
- cellular cytotoxicity of ATO (H1299 cells; H1299 infected with HAdV-C5 wt, ATO 0-10 µM, Fig. 2A): no clear effect
- cellular cytotoxicity of ATO (H1299 cells; H1299 infected with non-replicating eGFP vector, ATO 0-8µM, Fig. 2C): no clear effect
- cellular cytotoxicity of ATO (H1299 cells; H1299 infected with replication competent HAdV-GFP, Fig. 2B): no clear effect
- reduction of GFP expression / viral load over time [3]: four-fold
- inhibition of Hexon viral mRNA expression (HAdV-C5 wt [4]): 60%
- E1B-55K viral protein (HAdV-C5 wt [5]): decrease
- E4orf6 viral protein (HAdV-C5 wt [5]): decrease
- expression of the early viral protein E2A (HAdV-C5 wt [5]): decrease
- late capsid and capsid associated proteins (HAdV-C5 wt [5]): decrease
- viral early and late protein synthesis (HAdV-C5 wt [5]; 48 h.p.i.): significantly impaired
- signal obtained after capsid staining (native gel assay) (HAdV-C5 wt [6]): significantly reduced
- capsid protein expression (HAdV-C5 wt [6]; denatured input lysates, right panel): reduced
- number of PML-NBs (PML-NBs): significantly decreases
- RC in number (replication centers) (HAdV-C5 wt [7]): significant reduction
